Measured values: patent publication US9833497B2, “Human originated EGF domain proteins and use of the same” (CHENGDU SOURCEBIO LIMITED-LIABILITY COMPANY, priority 2013, dated 2017)

How the values were obtained:
Format in all cases: cell-based
Proteus vulgaris = experiment: MIC against Gram-negative bacteria: Proteus vulgaris; conditions: 5×10^5 CFU/mL; for MIC against P. vulgaris / MIC (μg/mL) P. vulgaris: 96-well plate, 37° C., 10 h; for MIC (μg/mL) P. vulgaris: Proteus vulgaris
How it was run: (§1)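 Inocula prepared by growing LB cultures at 37° C to 0.5 McFarland, centrifuging at 4000×g, and resuspending in fresh medium. Final density 5×10^5 CFU/mL per well with two-fold dilutions of purified EGF domain protein; shaking incubation at 37° C.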

Klebsiella pneumonia = experiment: MIC against Gram-negative bacteria: Klebsiella pneumonia; conditions: 5×10^5 CFU/mL; for MIC against K. pneumonia / MIC (μg/mL) K. pneumonia: 96-well plate, 37° C., 10 h; for MIC (μg/mL) K. pneumonia: Klebsiella pneumonia
How it was run: as §1

Serratia marcescens = experiment: MIC against Gram-negative bacteria: Serratia marcescens; conditions: 5×10^5 CFU/mL; for MIC against S. marcescens / MIC (μg/mL) S. marcescens: 96-well plate, 37° C., 10 h; for MIC (μg/mL) S. marcescens: Serratia marcescens
How it was run: as §1

Proteus mirabilis = experiment: MIC against Gram-negative bacteria: Proteus mirabilis; conditions: 5×10^5 CFU/mL; for MIC against P. mirabilis / MIC (μg/mL) P. mirabilis: 96-well plate, 37° C., 10 h; for MIC (μg/mL) P. mirabilis: Proteus mirabilis
How it was run: as §1

Citrobacter diversus = experiment: MIC against Gram-negative bacteria: Citrobacter diversus; conditions: 5×10^5 CFU/mL; for MIC against C. diversus / MIC (μg/mL) C. diversus: 96-well plate, 37° C., 10 h; for MIC (μg/mL) C. diversus: Citrobacter diversus
How it was run: as §1

Aeromonas hydrophila = experiment: MIC against Gram-negative bacteria: Aeromonas hydrophila; conditions: 5×10^5 CFU/mL; for MIC against A. hydrophila / MIC (μg/mL) A. hydrophila: 96-well plate, 37° C., 10 h; for MIC (μg/mL) A. hydrophila: Aeromonas hydrophila
How it was run: as §1

E. coli DH5α = experiment: Antibacterial activity: MIC and growth curve against E. coli DH5α in 96-well plate; conditions: minimal inhibitory concentration against E. coli DH5α; 96-well plate, 5×10^5 CFU/mL, 37° C., judged after 8 h
How it was run: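 Log-phase DH5α (OD600 about 0.5, 37° C, 185 rpm in LB) was pelleted, resuspended in fresh LB and seeded at 5×10^5 CFU/mL with recombinant protein at 50, 25 and 12.5 μg/mL (two-fold series), in triplicate. Plates were shaken at 175 rpm, 37° C, and OD600 was read every 30 min. MIC was the lowest concentration with no growth.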

Moraxella catarrhalis = experiment: MIC against Gram-negative bacteria: Moraxella catarrhalis; conditions: 5×10^5 CFU/mL; for MIC against M. catarrhalis / MIC (μg/mL) M. catarrhalis: 96-well plate, 37° C., 10 h; for MIC (μg/mL) M. catarrhalis: Moraxella catarrhalis
How it was run: as §1

Enterobacter cloacae = experiment: MIC against Gram-negative bacteria: Enterobacter cloacae; conditions: 5×10^5 CFU/mL; for MIC against E. cloacae / MIC (μg/mL) E. cloacae: 96-well plate, 37° C., 10 h; for MIC (μg/mL) E. cloacae: Enterobacter cloacae
How it was run: as §1

Pseudomonas aeruginosa = experiment: MIC against Gram-negative bacteria: Pseudomonas aeruginosa; conditions: 5×10^5 CFU/mL; for MIC against P. aeruginosa / MIC (μg/mL) P. aeruginosa: 96-well plate, 37° C., 10 h; for MIC (μg/mL) P. aeruginosa: Pseudomonas aeruginosa
How it was run: as §1

E. coli BL21 = experiment: MIC against Gram-negative bacteria: E. coli BL21; conditions: 5×10^5 CFU/mL; for MIC against E. coli BL21 / MIC (μg/mL) E. coli BL21: 96-well plate, 37° C., 10 h
How it was run: as §1

[1] = 10 h cultivation at 37° C., two-fold serial dilution

PRT474 (QADPCQPNPCEHGGDCLVHGSTFTCSCLAPFSGNKCQ; listed as Homo sapiens)
MIC against P. vulgaris (Proteus vulgaris): 50 µg/mL | MIC against K. pneumonia (Klebsiella pneumonia): 25 µg/mL | MIC against S. marcescens (Serratia marcescens): 12.5 µg/mL | MIC against P. mirabilis (Proteus mirabilis): 12.5 µg/mL | MIC against C. diversus (Citrobacter diversus): 12.5 µg/mL | MIC against A. hydrophila (Aeromonas hydrophila): 50 µg/mL | MIC (E. coli DH5α): 12.5 µg/mL | MIC against M. catarrhalis (Moraxella catarrhalis): 50 µg/mL | MIC against E. cloacae (Enterobacter cloacae): 25 µg/mL | MIC against P. aeruginosa (Pseudomonas aeruginosa): 25 µg/mL | MIC against E. coli BL21 (E. coli BL21): 25 µg/mL

PRT1153 (TVSTCDPEHDPPHHCSRGATCISLPHGYTCFCPLGTTGIYCE; listed as Homo sapiens)
MIC P. vulgaris (Proteus vulgaris; [1]): 50 µg/mL | MIC K. pneumonia (Klebsiella pneumonia; [1]): 50 µg/mL | MIC S. marcescens (Serratia marcescens; [1]): 12.5 µg/mL | MIC P. mirabilis (Proteus mirabilis; [1]): 25 µg/mL | MIC C. diversus (Citrobacter diversus; [1]): 25 µg/mL | MIC A. hydrophila (Aeromonas hydrophila; [1]): 50 µg/mL | MIC (E. coli DH5α): 12.5 µg/mL | MIC M. catarrhalis (Moraxella catarrhalis; [1]): 12.5 µg/mL | MIC E. cloacae (Enterobacter cloacae; [1]): 12.5 µg/mL | MIC P. aeruginosa (Pseudomonas aeruginosa; [1]): 12.5 µg/mL | MIC E. coli BL21 (E. coli BL21; [1]): 50 µg/mL

PRT6 (TRKLCSLDNGDCDQFCHEEQNSVVCSCARGYTLADNGKACI; listed as Homo sapiens)
MIC (μg/mL) P. vulgaris (Proteus vulgaris): 25 µg/mL | MIC (μg/mL) K. pneumonia (Klebsiella pneumonia): 50 µg/mL | MIC (μg/mL) S. marcescens (Serratia marcescens): 25 µg/mL | MIC (μg/mL) P. mirabilis (Proteus mirabilis): 12.5 µg/mL | MIC (μg/mL) C. diversus (Citrobacter diversus): 25 µg/mL | MIC (μg/mL) A. hydrophila (Aeromonas hydrophila): 12.5 µg/mL | MIC (E. coli DH5α): 50 µg/mL | MIC (μg/mL) M. catarrhalis (Moraxella catarrhalis): 25 µg/mL | MIC (μg/mL) E. cloacae (Enterobacter cloacae): 25 µg/mL | MIC (μg/mL) P. aeruginosa (Pseudomonas aeruginosa): 25 µg/mL | MIC (μg/mL) E. coli BL21 (E. coli BL21): 50 µg/mL

PRT46 (CQCNGHSTCINNNVCEQCKNLTTGKQCQDCMPGYYGDPTNGGQCTA; listed as Homo sapiens)
MIC (μg/mL) P. vulgaris (Proteus vulgaris): 12.5 µg/mL | MIC (μg/mL) K. pneumonia (Klebsiella pneumonia): 12.5 µg/mL | MIC (μg/mL) S. marcescens (Serratia marcescens): 100 µg/mL | MIC (μg/mL) P. mirabilis (Proteus mirabilis): 25 µg/mL | MIC (μg/mL) C. diversus (Citrobacter diversus): 12.5 µg/mL | MIC (μg/mL) A. hydrophila (Aeromonas hydrophila): 12.5 µg/mL | MIC (E. coli DH5α): 25 µg/mL | MIC (μg/mL) M. catarrhalis (Moraxella catarrhalis): 12.5 µg/mL | MIC (μg/mL) E. cloacae (Enterobacter cloacae): 25 µg/mL | MIC (μg/mL) P. aeruginosa (Pseudomonas aeruginosa): 50 µg/mL | MIC (μg/mL) E. coli BL21 (E. coli BL21): 12.5 µg/mL

PRT490 (CASAPCRNGGVCREGWNRFICDCIGTGFLGRVCE; listed as Homo sapiens)
MIC against P. vulgaris (Proteus vulgaris): 50 µg/mL | MIC against K. pneumonia (Klebsiella pneumonia): 12.5 µg/mL | MIC against S. marcescens (Serratia marcescens): 25 µg/mL | MIC against P. mirabilis (Proteus mirabilis): 25 µg/mL | MIC against C. diversus (Citrobacter diversus): 25 µg/mL | MIC against A. hydrophila (Aeromonas hydrophila): 50 µg/mL | MIC (E. coli DH5α): 25 µg/mL | MIC against M. catarrhalis (Moraxella catarrhalis): 12.5 µg/mL | MIC against E. cloacae (Enterobacter cloacae): 25 µg/mL | MIC against P. aeruginosa (Pseudomonas aeruginosa): 25 µg/mL | MIC against E. coli BL21 (E. coli BL21): 50 µg/mL

PRT71 (VDACHLNPCENMGACVRSPGSPQGYVCECGPSHYGPYCE; listed as Homo sapiens)
MIC (μg/mL) P. vulgaris (Proteus vulgaris): 12.5 µg/mL | MIC (μg/mL) K. pneumonia (Klebsiella pneumonia): 25 µg/mL | MIC (μg/mL) S. marcescens (Serratia marcescens): 12.5 µg/mL | MIC (μg/mL) P. mirabilis (Proteus mirabilis): 12.5 µg/mL | MIC (μg/mL) C. diversus (Citrobacter diversus): 12.5 µg/mL | MIC (μg/mL) A. hydrophila (Aeromonas hydrophila): 25 µg/mL | MIC (E. coli DH5α): 50 µg/mL | MIC (μg/mL) M. catarrhalis (Moraxella catarrhalis): 50 µg/mL | MIC (μg/mL) E. cloacae (Enterobacter cloacae): 50 µg/mL | MIC (μg/mL) P. aeruginosa (Pseudomonas aeruginosa): 12.5 µg/mL | MIC (μg/mL) E. coli BL21 (E. coli BL21): 25 µg/mL
